# In PubChem BioAssay (NCI):
#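 Protocol summary: plate cells (96-well), add compound at 5 concentrations, incubate 48 h, interpolate endpoints linearly. GI50: concentration for 50% inhibition of growth. At the TGI there is no net growth.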
# Key:
# Test in all cases: NCI-60 cell line screen, 48 h
# [1] = tested on: A498 renal
# [2] = tested on: CAKI-1 renal
# [3] = tested on: EKVX NSCLC
# [4] = tested on: IGROV1 ovarian
# [5] = tested on: K-562 leukemia
# [6] = tested on: MOLT-4 leukemia
# [7] = tested on: SF-539 CNS
# [8] = tested on: SK-OV-3 ovarian
# [9] = tested on: SW-620 colon
# [10] = tested on: UACC-257 melanoma
SMILES,GI50 [1],TGI [1],GI50 [2],TGI [2],GI50 [3],TGI [3],GI50 [4],TGI [4],GI50 [5],TGI [5],GI50 [6],TGI [6],GI50 [7],TGI [7],GI50 [8],TGI [8],GI50 [9],TGI [9],GI50 [10],TGI [10]
COc1cccc2c1C(=O)c1c(O)c3c(c(O)c1C2=O)C[C@](O)(C(=O)CO)C[C@H]3O[C@@H]1C[C@@H](NC(=O)CCCCCN(C)C2(c3ccc(F)cc3)CC3CCC2C3)[C@H](O)[C@@H](C)O1 (stereo partly specified),5.92 µM,12.4 µM,6.82 µM,13.3 µM,7.85 µM,17.7 µM,6.59 µM,14.8 µM,1.11 µM,2.47 µM,0.304 µM,2.61 µM,3.67 µM,10.3 µM,7.46 µM,14.7 µM,0.76 µM,1.85 µM,0.931 µM,1.73 µM
O=c1ccn([C@H]2CSC[C@@H](CO)C2)c(=O)[nH]1,,> 100 µM,,> 100 µM,,> 100 µM,,> 100 µM,,> 100 µM,,> 100 µM,,> 100 µM,,> 100 µM,,> 100 µM,,> 100 µM
CC(=O)OC12C=CC(=O)N1c1ccccc1C(=O)O2 (stereo unspecified),> 100 µM,> 100 µM,,> 100 µM,,> 100 µM,,> 100 µM,,> 100 µM,,> 100 µM,,> 100 µM,,> 100 µM,,> 100 µM,,> 100 µM
